These results are taken from patent US9987336B2, “Attenuating or treating sepsis or septic shock” (Rutgers, the State University of New Jersey, priority 2012, dated 2018).

One experiment relates to adenosine receptors. Particulars: CD73 KO mice made septic by CLP; compared with wild-type mice; cited from earlier work.
In another experiment the test system is MIP-2. In words: MIP-2 level after CLP (ELISA). It counts as in vivo, mouse. The following applies: C57BL/6J mice, 16 hours post-CLP, vs. vehicle. The method, then:
(§1) CD39 knockout (KO) mice and their wild-type littermates were developed according to established methods and were backcrossed 6-8 times to a C57BL/6J background (Enjyoji, et al. (1999) Nat. Med. 5(9):1010-7). Wild-type and KO littermates were used in this analysis. In some experiments, mice were treated with sodium polyoxotungstate (POM-1, Na6[H2W12O40], 3 mg/kg/h, […], prior to CLP) or apyrase from potatoes (Sigma, 5 U apyrase i.p., prior to CLP).
(§2) Polymicrobial sepsis was induced by subjecting C57BL/6J mice to CLP in accordance with established methods (Németh, et al. (2006) supra; Gallos, et al. (2005) supra; Lee, et al. (2006) supra; Csóka, et al. (2010) supra). After the operation, all mice were resuscitated with 1 ml physiological saline injected s.c. and returned to their cages with free access to food and water.
(§3) Sixteen hours after the CLP operation (the following day), the mice were reanesthetized with pentobarbital (50 mg/kg i.p.), and blood and peritoneal lavage fluid were harvested. Specifically, after opening the chest of mice, blood samples were obtained aseptically by cardiac puncture using heparinized syringes. […]
(§4) Concentrations of TNF-α and MIP-2 were determined in blood and peritoneal lavage fluid obtained 16 hours after CLP using commercially available ELISA kits (R&D Systems, Minneapolis, Minn.) according to the manufacturer's instructions.
(An ELISA detects its analyte on a solid surface through an enzyme-linked reagent.)

In a further experiment the test system is TNF-α. In words: TNF-α level after CLP (ELISA). It counts as in vivo, mouse. Particulars: C57BL/6J mice, 16 hours post-CLP, vs. vehicle. The method, then:
as §1, §2, §3, §4

Experiment [1] concerns C57BL/6J mice made septic by cecal ligation and puncture (CLP). In words: Survival after sepsis induced by cecal ligation and puncture (CLP). Type of experiment: in vivo, mouse. The following applies: murine model of septic shock induced by cecal ligation and puncture. The method, then:
In this analysis, CD39 KO mice, mice administered a CD39 blocker (sodium polyoxotungstate) or mice administered an apyrase (potato apyrase) were made septic by cecal ligation and puncture (CLP) and survival after CLP was recorded for 7 days. In addition, the immune status of the mice was assessed by measuring cytokine levels from blood and peritoneal lavage fluid. […] Thus, ectonucleotidase manipulation is therapeutically useful for the treatment of septic shock.
as §1, §2

“Also recorded” adds a separate entry of the source.

For `CCNC(=O)[C@H]1O[C@@H](n2cnc3c(N)ncnc32)[C@H](O)[C@@H]1O` [NECA, 5′-(N-ethylcarboxamido)adenosine], the inflammatory cytokine levels result in the experiment on adenosine receptors is given as “completely reversed the increased cytokine levels”.
Consider apyrase, for which, in the experiment on MIP-2, the MIP-2 levels result was “decreases plasma cytokine levels; also recorded: decreased the levels”. The TNF-α levels result with TNF-α is listed as “decreases plasma cytokine levels; also recorded: decreased the levels”. Besides, in experiment [1], the organ dysfunction entry was “prevents organ dysfunction”.
Turning to “sodium polyoxotungstate [reference compound]”, the MIP-2 levels result with MIP-2 is on record as “increased the levels”. Besides, the TNF-α levels entry in the experiment with TNF-α is recorded as “increased the levels”.
